Read-outs that look alike come from different tables or passages of the source.
Tests used:
[1] = target: Beta Secretase enzyme (BACE1) (Homo sapiens, UniProt P56817); assay: In vitro enzymatic BACE FRET assay; assay type: biochemical; details: read-out: BACE1 FRET assay IC50
Procedure: In Vitro Enzymatic BACE FRET (Fluorescence Resonance Energy Transfer) Assay (Enzyme Assay Data in the Example Tables I and II)
The assay buffer used in this screen is 0.05 M acetate, pH 4.2, 10% DMSO final, 100 uM genapol (which is a nonionic detergent, below its Critical Micelle Concentration). […] This assay is effectively started by the addition of FRET substrate (50 nM) and the combination is incubated for one hour. The FRET assay is terminated with by addition of Tris buffer, which raises the pH to neutrality, and the fluorescence is determined. The FRET substrate is a peptide with commercially available fluorophore and quencher, on opposite sides of the BACE cleavage site. Proteolytic cleavage of the FRET substrate releases quenching of fluorescence (excitation […] and […]).

[2] = system: Aβ40 in conditioned medium of cells stably expressing Amyloid Precursor Protein (APP); assay: In vitro BACE cell-based assay (HEK cell assay), Aβ40 sandwich ELISA
Procedure: In Vitro BACE Cell-Based Assay
The cell-based assay measures inhibition or reduction of Aβ40 in conditioned medium of test compound treated cells expressing amyloid precursor protein.
Cells stably expressing Amyloid Precursor Protein (APP) were plated at a density of 40K cells/well in 96 well plates (Costar). The cells were cultivated for 24 hours at 37C. and 5% CO2 in DMEM supplemented with 10% FBS. The test compounds were then added to cells in 10-point dose response concentrations with the starting concentration being either 100 μM or 10 μM. The compounds were diluted from stock solutions in DMSO and the final DMSO concentration of the test compounds on cells was 0.1%. After 24 h of incubation with the test compounds the supernatant conditioned media was collected and the Aβ 40 levels were determined using a sandwich ELISA. The IC50 of the compound was calculated from the percent of control or percent inhibition of Aβ 40 as a function of the concentration of the test compound.
The sandwich ELISA to detect Aβ 40 was performed in 96 well microtiter plates, which were pre-treated with goat anti-rabbit IgG (Pierce). The capture and detecting antibody pair that were used to detect Aβ 40 from cell supernatants were affinity purified pAb40 (Biosource) and biotinylated 6E10 (Signet Labs Inc.), respectively. The optimal concentration for the pAb40 antibody was 3 μg/ml in Superblock/TBS (Pierce) that was supplemented with 0.05% Tween 20 (Sigma). Optimal concentration for the detection antibody 6E10-biotinylated was 0.5 μg/ml in Superblock/TBS (Pierce) that had been supplemented with 2% normal goat serum and 2% normal mouse serum.
Cellular supernatants were incubated with the capture antibody for 3 h at 4° C., followed by 3 wash steps in TBS-tween (0.05%). The detecting antibody incubation was for 2 h at 4° C., again followed by the wash steps as described previously. The final readout of the ELISA is Time-Resolved Fluorescence (counts per minute) using Delfia reagents Streptavidin-Europium and Enhancement solutions (Perkin Elmer) and the Victor 2 multilabel counter (Perkin Elmer).

Cathepsin D (Cat D) = target: T1, Cathepsin D (Cat D) (Homo sapiens, UniProt P07339); assay: In vitro enzymatic Cathepsin D (Cat D) FRET assay; assay type: biochemical; details: read-out: CatD IC50
T1 construct: Recombinant Cat D was expressed in CHO cells; made in house; host or cells: CHO cells
T1 sequence (P07339 65-412, species assumed): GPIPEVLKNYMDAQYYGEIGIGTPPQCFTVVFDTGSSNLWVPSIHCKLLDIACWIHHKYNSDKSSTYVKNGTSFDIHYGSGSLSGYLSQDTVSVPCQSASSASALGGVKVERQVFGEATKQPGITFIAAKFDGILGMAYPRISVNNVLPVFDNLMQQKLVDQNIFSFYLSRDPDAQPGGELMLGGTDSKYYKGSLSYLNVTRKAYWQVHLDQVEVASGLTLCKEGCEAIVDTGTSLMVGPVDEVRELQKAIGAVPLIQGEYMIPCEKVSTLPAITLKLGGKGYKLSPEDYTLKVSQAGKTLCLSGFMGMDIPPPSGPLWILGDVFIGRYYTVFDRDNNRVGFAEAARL
Procedure: In Vitro Enzymatic Cathepsin D (Cat D) FRET (Fluorescence Resonance Energy Transfer) Assay Recombinant Cat D was expressed in CHO cells. […] The Cat D enzyme (9 nM) is pre-incubated for one hour with inhibitors, typically in about 1 uL of DMSO according to a serial dilution, is added thereto. […] The FRET assay is terminated with by addition of Tris buffer, which raises the pH to neutrality, and the fluorescence is determined. The FRET substrate is a peptide with commercially available fluorophore and quencher, on opposite sides of the BACE cleavage site. The Cat D substrate peptide sequence is based on sequence #1 of Table 1 from Gulnik et al. […] Alternatively, a Cat D assay may also be run according to the procedure described in the article, Characterization of new fluorgenic substrates for the rapid and sensitive assay of cathepsin E and cathepsin D, J. Biochem., 125:1137, 1999. In addition, the cathepsin D and cathepsin E assays are described in PCT publication WO2011069934. This WIPO publication describes BACE inhibitor compounds having an amide linker connecting two aromatic groups with extremely poor cathepsin D and/or cathepsin E inhibitory activity (see Table 2). Where available, the in-vitro Cat D FRET assay data for each of the Examples, conducted by the first procedure, is provided.

[3] = Homo sapiens, HEK293, Aβ40, 24 h incubation
[4] = Homo sapiens, HEK293, average IC50, cell assay
[5] = Homo sapiens, HEK293, average IC50, HEK cell assay

Sequence of Beta Secretase enzyme (BACE1) (P56817 46-501): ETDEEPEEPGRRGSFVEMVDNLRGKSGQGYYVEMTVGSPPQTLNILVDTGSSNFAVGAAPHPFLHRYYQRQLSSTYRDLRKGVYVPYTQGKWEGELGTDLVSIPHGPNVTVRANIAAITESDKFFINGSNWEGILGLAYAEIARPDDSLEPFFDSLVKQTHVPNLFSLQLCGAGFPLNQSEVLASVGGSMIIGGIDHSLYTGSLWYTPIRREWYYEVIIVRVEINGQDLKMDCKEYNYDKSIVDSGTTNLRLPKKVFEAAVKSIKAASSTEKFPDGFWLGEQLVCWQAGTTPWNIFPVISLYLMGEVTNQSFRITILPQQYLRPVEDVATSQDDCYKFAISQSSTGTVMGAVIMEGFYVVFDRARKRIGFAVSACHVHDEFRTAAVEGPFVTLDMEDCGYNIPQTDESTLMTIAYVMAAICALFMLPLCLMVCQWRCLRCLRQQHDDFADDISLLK

Row | IC50 (Cathepsin D (Cat D)) [µM] | IC50 ([1]; average IC50, enzyme assay) [µM] | IC50 [2, 4] [µM] | Molecule | other results
1 | 283 | – | – | COc1cnc2c(Nc3ccc(F)c([C@]4(C)CS(=O)(=O)C5(CCCC5)C(N)=N4)c3)nccc2c1 [Example 84, (R)-10-Amino-8-(2-fluoro-5-((3-methoxy-1,7-naphthyridin-8-yl)amino)phenyl)-8-methyl-6-thia-9-azaspiro[4.5]dec-9-ene 6,6-dioxide] | IC50 [1]: 0.0234 µM; IC50 [2, 3]: 0.0575 µM
2 | 1870 | 0.00704 | 0.0159 | CC1(C)C(N)=N[C@](C)(c2cc(NC(=O)c3ccc(Cl)cn3)c[nH]c2=O)CS1(=O)=O [Example 452, N-(5-((3R)-5-amino-3,6,6-trimethyl-1,1-dioxido-3,6-dihydro-2H-1,4-thiazin-3-yl)-6-oxo-1,6-dihydro-3-pyridinyl)-5-chloro-2-pyridinecarboxamide] | –
3 | 194 | – | – | COc1ccc(C)cc1Oc1ccc(F)c([C@]2(C)CS(=O)(=O)C(C)(C)C(N)=N2)c1 [Example 101, (R)-5-amino-3-(2-fluoro-5-(2-methoxy-5-methylphenoxy)phenyl)-3,6,6-trimethyl-3,6-dihydro-2H-1,4-thiazine 1,1-dioxide] | IC50 [1]: 15.2 µM; IC50 [2, 3]: > 10 µM
4 | 979 | 0.00277 | – | C[C@]1(F)C(N)=N[C@](C)(c2cc(NC(=O)c3ncc(C(F)F)cc3Cl)ccc2F)CS1(=O)=O [Example 326, N-(3-((3R,6R)-5-amino-6-fluoro-3,6-dimethyl-1,1-dioxido-3,6-dihydro-2H-1,4-thiazin-3-yl)-4-fluorophenyl)-3-chloro-5-(difluoromethyl)-2-pyridinecarboxamide] | IC50 [2, 5]: 0.0597 µM
5 | 119 | 0.228 | 0.787 | CC#Cc1ccnc(Oc2ccc(F)c([C@]3(C)CS(=O)(=O)C(C)(C)C(N)=N3)c2)c1 [Example 286, (5R)-5-(2-fluoro-5-((4-(1-propyn-1-yl)-2-pyridinyl)oxy)phenyl)-2,2,5-trimethyl-5,6-dihydro-2H-1,4-thiazin-3-amine 1,1-dioxide] | –
6 | 108 | 0.00059 | – | C=Cc1cc(Cl)cnc1C(=O)Nc1ccc(F)c([C@]2(C)CS(=O)(=O)C(C)(C)C(N)=N2)c1 [Example 195, (R)—N-(3-(5-amino-3,6,6-trimethyl-1,1-dioxido-3,6-dihydro-2H-1,4-thiazin-3-yl)-4-fluorophenyl)-5-chloro-3-vinylpicolinamide] | IC50 [2, 5]: 0.0039 µM
7 | 188 | 0.0003 | – | Cc1cc(Cl)cnc1C(=O)Nc1ccc(F)c([C@@]2(C)N=C(N)C(C)(C)S(=O)(=O)C2F)c1 (stereo partly drawn) [Example 331, N-(3-((3R)-5-amino-2-fluoro-3,6,6-trimethyl-1,1-dioxido-3,6-dihydro-2H-1,4-thiazin-3-yl)-4-fluorophenyl)-5-chloro-3-methyl-2-pyridinecarboxamide] | IC50 [2, 5]: 0.0048 µM
8 | 421 | 2.71 | 2.63 | Cc1cc(Oc2ccc(F)c([C@]3(C)CS(=O)(=O)C(C)(C)C(N)=N3)c2)ncc1Cl [Example 276, (5R)-5-(5-((5-chloro-4-methyl-2-pyridinyl)oxy)-2-fluorophenyl)-2,2,5-trimethyl-5,6-dihydro-2H-1,4-thiazin-3-amine 1,1-dioxide] | –
9 | 99.9 | – | – | C[C@]1(F)C(N)=N[C@](C)(c2cc(Nc3nccc4cc(C#N)cnc34)ccc2F)CS1(=O)=O [Example 60, 8-((3-((3R,6R)-5-amino-6-fluoro-3,6-dimethyl-1,1-dioxido-3,6-dihydro-2H-1,4-thiazin-3-yl)-4-fluorophenyl)amino)-1,7-naphthyridine-3-carbonitrile] | IC50 [1]: < 0.002 µM; IC50 [2, 3]: 0.0808 µM
10 | 111 | – | – | N-(3-((4aR,7aR)-3-amino-2,2-dimethyl-1,1-dioxido-7,7a-dihydro-2H-furo[3,4-b][1,4]thiazin-4a(5H)-yl)-4-fluorophenyl)-5-(difluoromethoxy)-3-methyl-2-pyridinecarboxamide, N-(3-((4aS,7aS)-3-amino-2,2-dimethyl-1,1-dioxido-7,7a-dihydro-2H-furo[3,4-b][1,4]thiazin-4a(5H)-yl)-4-fluorophenyl)-5-(difluoromethoxy)-3-methyl-2-pyridinecarboxamide [Example 413] | IC50 [1]: 0.00265 µM; IC50 [2]: 0.0103 µM
11 | > 1.65 | 0.00223 | 0.0643 | CC1(C)C(N)=N[C@](CF)(c2cc(Nc3ncc(F)c4cc(OCC(F)F)cnc34)ccc2F)CS1(=O)=O [Example 437, N-(3-((3S)-5-amino-3-(fluoromethyl)-6,6-dimethyl-1,1-dioxido-3,6-dihydro-2H-1,4-thiazin-3-yl)-4-fluorophenyl)-3-(2,2-difluoroethoxy)-5-fluoro-1,7-naphthyridin-8-amine] | –
12 | 547 | 0.106 | – | Cc1cc(C(F)(F)F)cc(Oc2ccc(F)c([C@]3(C)CS(=O)(=O)C(C)(C)C(N)=N3)c2)n1 [Example 298, (5R)-5-(2-fluoro-5-((6-methyl-4-(trifluoromethyl)-2-pyridinyl)oxy)phenyl)-2,2,5-trimethyl-5,6-dihydro-2H-1,4-thiazin-3-amine 1,1-dioxide] | IC50 [2, 5]: 0.737 µM
13 | 101 | 0.00033 | 0.119 | C[C@]1(F)C(N)=N[C@](C)(c2cc(Nc3nccc4cc(Cl)cnc34)ccc2F)CS1(=O)=O [Example 174, (3R,6R)-5-Amino-3-(5-((3-chloro-1,7-naphthyridin-8-yl)amino)-2-fluorophenyl)-6-fluoro-3,6-dimethyl-3,6-dihydro-2H-1,4-thiazine 1,1-dioxide] | –

Row | Molecule | IC50 (Cathepsin D (Cat D)) [µM] | IC50 ([1]; average IC50, enzyme assay) [µM] | IC50 [2, 4] [µM] | other results
14 | CC1(C)C(N)=N[C@](CF)(c2cc(NC(=O)c3cnc(OCC4CC4)cn3)ccc2F)CS1(=O)=O [Example 156, (S)—N-(3-(5-amino-3-(fluoromethyl)-6,6-dimethyl-1,1-dioxido-3,6-dihydro-2H-1,4-thiazin-3-yl)-4-fluorophenyl)-5-(cyclopropylmethoxy)pyrazine-2-carboxamide] | 835 | 0.0005 | 0.0049 | –
15 | Cc1cc(Cl)cnc1C(=O)Nc1ccc(F)c([C@]2(CF)CS(=O)(=O)C3(CC3)C(N)=N2)c1 [Example 216, N-(3-((6S)-8-amino-6-(fluoromethyl)-4,4-dioxido-4-thia-7-azaspiro[2.5]oct-7-en-6-yl)-4-fluorophenyl)-5-chloro-3-methyl-2-pyridinecarboxamide] | 132 | – | – | IC50 ([1]; average IC50): 0.00054 µM; IC50 ([2]; Homo sapiens, HEK293, average IC50, HEK cells): 0.0044 µM
16 | COc1cnc2c(Nc3ccc(F)c([C@]4(C)CS(=O)(=O)C5(CC(F)(F)C5)C(N)=N4)c3)nccc2n1 [Example 128, (R)-9-amino-2,2-difluro-7-(2-fluoro-5-((2-methoxypyrido[3,4b]pyrazin-5-yl)amino)phenyl)-7-methyl-5-thia-8-azaspiro[3.5]non-8-ene 5,5-dioxide] | 330 | 0.0259 | 0.199 | –

Reference: patent US20140107109A1, “AMINO-DIHYDROTHIAZINE AND AMINO-DIOXIDO DIHYDROTHIAZINE COMPOUNDS AS BETA-SECRETASE ANTAGONISTS AND METHODS OF USE” (Amgen Inc., priority 2012, published 2014)
